# Source: patent US6548549B1, “Acylaminosalicylic acid amides and their uses as pesticides” (Bayer Aktiengesellschaft, priority 1995, dated 2003)
# Legend:
# [1] = tested on: Botrytis cinerea; assay: Botrytis test (beans)/protective; type: in vivo; settings: protective, 500 ppm active compound, lesion size 3 days after inoculation
# Protocol: Botrytis Test (Beans)/Protective Solvent: 4.7 parts by weight of acetone Emulsifier: 0.3 part by weight of alkylaryl polyglycol ether To produce a suitable preparation of active compound, 1 part by weight of active compound is mixed with the stated amounts of solvent and emulsifier, and the concentrate is diluted with water to the desired concentration. To test for protective activity, young plants are sprayed with the preparation of active compound. After the spray coating has dried on, 2 small pieces of agar covered with Botrytis cinerea are placed on each leaf. The inoculated plants are then placed in a darkened humid chamber at 20° C. 3 days after the inoculation, the size of the lesions on the leaves is evaluated.
# [2] = tested on: Pyricularia oryzae; type: in vivo; settings: rice, protective, active compound concentration 0.05%, evaluation 4 days after inoculation
# [3] = tested on: Pseudocercosporella herpotrichoides; assay: Pseudocercosporella herpotrichoides test (wheat)/protective; type: in vivo; settings: protective, application rate 250 g/ha, evaluation 21 days after inoculation
# Protocol: Pseudocercosporella herpotrichoides Test (Wheat)/Protective Solvent: 10 parts by weight of N-methyl-pyrrolidone Emulsifier: 0.6 part by weight of alkylaryl polyglycol ether To produce a suitable preparation of active compound, 1 part by weight of active compound is mixed with the stated amounts of solvent and emulsifier, and the concentrate is diluted with water to the desired concentration. To test for protective activity, young plants are sprayed with the preparation of active compound at the rate of application shown. After the spray coating has dried on, the stem base of the plants is inoculated with spores of Pseudocercosporella herpotrichoides. […] Evaluation is carried out 21 days after the inoculation.
# [4] = tested on: Sphaerotheca fuliginea; assay: Sphaerotheca test (cucumber)/protective; type: in vivo; settings: protective, 100 ppm active substance, evaluation 10 days after inoculation
# Protocol: Sphaerotheca Test (Cucumber)/Protective Solvent: 4.7 parts by weight of acetone Emulsifier: 0.3 part by weight of alkylaryl polyglycol ether To produce a suitable preparation of active compound, 1 part by weight of active compound is mixed with the stated amounts of solvent and emulsifier, and the concentrate is diluted with water to the desired concentration. To test for protective activity, young plants are sprayed with the preparation of active compound. After the spray coating has dried on, the plants are dusted with conidia of the fungus Sphaerotheca fuliginea. The plants are then placed in a greenhouse at 23 to 24° C. and at a relative atmospheric humidity of about 75%. Evaluation is carried out 10 days after the inoculation.
# [5] = tested on: larvae of the green rice leafhopper (Nephotettix cincticeps); assay: Nephotettix test; type: in vivo; settings: rice seedlings dipped, active compound concentration 0.001%, after 7 days
# Protocol: Nephotettix Test Solvent: 7 parts by weight of dimethylformamide Emulsifier: 1 part by weight of alkylaryl polyglycol ether To produce a suitable preparation of active compound, 1 part by weight of active compound is mixed with the stated amount of solvent and the stated amount of emulsifier, and the concentrate is diluted with water to the desired concentration. Rice seedlings (Oryza sativa) are treated by being dipped into the preparation of the active compound of the desired concentration and populated with larvae of the green rice leafhopper (Nephotettix cincticeps) while the seedlings are still moist. After the specified period of time, the destruction in % is determined. 100% means that all the leafhoppers have been killed; 0% means that none of the leafhoppers have been killed.
# [6] = tested on: caterpillars of the fall armyworm Spodoptera frugiperda; assay: Spodoptera test; type: in vivo; settings: cabbage leaves dipped, concentration 0.1%, after 7 days
# Protocol: Spodoptera Test Solvent: 7 parts by […]: 1 part by weight of alkylaryl polyglycol ether To produce a suitable preparation of active compound, 1 part by weight of active compound is mixed with the stated amount of solvent and the stated amount of emulsifier, and the concentrate is diluted with water to the desired concentration. Cabbage leaves (Brassica oleracea) are treated by being dipped into the preparation of the active compound of the desired concentration and are populated with caterpillars of the fall armyworm Spodoptera frugiperda while the leaves are still moist. After the specified period of time, the activity in % is determined. 100% means that all the caterpillars have been killed; 0% means that none of the caterpillars have been killed.
# [7] = tested on: mustard beetle larvae (Phaedon cochleariae); assay: Phaedon larvae test; type: in vivo; settings: cabbage leaves dipped, active compound concentration 0.01%, after 7 days
# Protocol: Phaedon Larvae Test Solvent: 7 parts by weight of dimethylformamide Emulsifier: 1 part by weight of alkylaryl polyglycol ether To produce a suitable preparation of active compound, 1 part by weight of active compound is mixed with the stated amount of solvent and the stated amount of emulsifier, and the concentrate is diluted with water to the desired concentration. Cabbage leaves (Brassica oleracea) are treated by being dipped into the preparation of the active compound of the desired concentration and are populated with mustard beetle larvae (Phaedon cochleariae) while the leaves are still moist. After the specified period of time, the destruction in % is determined. 100% means that all the beetle larvae have been killed; 0% means that none of the beetle larvae have been killed.
structure (smiles),measurement,setting,value
"O=CNc1cccc(C(=O)Nc2ccc(-c3ccccc3)cc2)c1O [Example 2, 3-formamido-2-hydroxy-N-(4-phenylphenyl)-benzamide]",efficacy,[1],90%
same,melting point,,190 °C
"CC(NC(=O)c1cccc(NC=O)c1O)c1ccc(F)cc1 (stereo not drawn) [Example 3, 3-formamido-2-hydroxy-N-[1-(4-fluorphenyl)-ethyl)-benzamide]",efficacy,[1],90%
O=CNc1cccc(C(=O)Nc2ccc(Oc3ccc(Cl)cc3)c(Cl)c2)c1O [Example 4],efficacy,[1],90%
O=CNc1cccc(C(=O)Nc2ccc(Oc3cccc(C(F)(F)F)c3)cc2)c1O [Example 5],efficacy,[2],over 80%
same,efficacy,[1],90%
same,efficacy,[3],over 80%
same,efficacy,[4],over 80%
COc1cccc(C(C)NC(=O)c2cccc(NC=O)c2O)c1 (stereo not drawn) [Example 10],efficacy,[1],90%
CC(NC(=O)c1cccc(NC=O)c1O)c1ccc(Cl)cc1Cl (stereo not drawn) [Example 15],efficacy,[1],90%
CCc1ccc(C(C)NC(=O)c2cccc(NC=O)c2O)cc1 (stereo not drawn) [Example 16],efficacy,[1],90%
O=CNc1cccc(C(=O)NCc2ccc(F)cc2)c1O [Example 35],destruction,[5],100%
O=CNc1cccc(C(=O)NCc2cccc(C(F)(F)F)c2)c1O [Example 39],destruction,[5],100%
CCc1ccc(-c2ccc(CCNC(=O)c3cccc(NC=O)c3O)cc2)cc1 [Example 47],destruction rate,[6],85%
same,destruction,[7],100%
CC(NC(=O)c1cccc(NC=O)c1O)C1CC=CCC1 (stereo not drawn) [Example 71],destruction,[5],100%
CC(NC(=O)c1cccc([N+](=O)[O-])c1OCc1ccccc1)c1cccc(C(F)(F)F)c1 (stereo not drawn) [Example V-34],destruction,[7],100%
"O=C(Nc1ccc(-c2ccccc2)cc1)c1cccc([N+](=O)[O-])c1O [IV-a-1, 3-nitro-2-hydroxy-N-(4-phenyl-phenyl)-benzamide]",melting point,,152 °C
